Test results as given in the NIST ThermoML archive (doi:10.1016/j.jct.2013.10.018).
± gives the expanded uncertainty stated by the source.

Details: 101.33 kPa, Liquid; for speed of sound: Sing-around technique in a fixed-path interferometer; for mass density: Vibrating tube method

speed of sound (298.15 K)	mass density (298.15 K)	speed of sound (303.15 K)	mass density (303.15 K)	speed of sound (308.15 K)	mass density (308.15 K)	speed of sound (313.15 K)	mass density (313.15 K)	speed of sound (318.15 K)	mass density (318.15 K)	speed of sound (323.15 K)	mass density (323.15 K)	SMILES
1380 ± 3 m/s	826.36 ± 0.24 kg/m3	1363 ± 3 m/s	822.88 ± 0.24 kg/m3	1346 ± 3 m/s	819.43 ± 0.24 kg/m3	1329 ± 3 m/s	815.97 ± 0.24 kg/m3	1312 ± 3 m/s	812.49 ± 0.24 kg/m3	1296 ± 3 m/s	809.03 ± 0.24 kg/m3	CCCCCCCCCCO [decan-1-ol]
1349 ± 3 m/s	821.74 ± 0.26 kg/m3	1332 ± 3 m/s	818.26 ± 0.26 kg/m3	1315 ± 3 m/s	814.76 ± 0.26 kg/m3	1299 ± 3 m/s	811.24 ± 0.26 kg/m3	1282 ± 3 m/s	807.69 ± 0.26 kg/m3	1265 ± 3 m/s	804.12 ± 0.26 kg/m3	CCCCCCCCO [octan-1-ol]
